The subject of this assay is HepG2. The assay is described as follows: Cytotoxicity against human HepG2 cells after 24 hrs by Alamar blue assay. Type of assay: functional, cell-based. Particulars: for IC50: HepG2, 24 h. (In general: The colour change of resazurin is a common sign of viable cells or microbes.)

Data on 15 molecules can be found in ChEMBL document CHEMBL1151280, “ent-Kaurane Diterpenoids from Isodon albopilosus” (J Nat Prod, 2005).

Structures are written as SMILES.

Regarding `CC(=O)OC[C@@]1(C)CCC[C@]2(C)[C@@H]1C[C@@H](O)[C@@]13C(=O)[C@H](CO)[C@@H]([C@H]1O)[C@@H](O)C[C@@H]23`, the Activity entry is “Not toxic”.
`C=C1C(=O)[C@@]23[C@H](O)C[C@H]4[C@@](C)(CCC[C@]4(C)C=O)[C@@H]2C[C@H](O)[C@@H]1[C@H]3O` [MACROCALYXIN C]: half-maximal inhibition (IC50) required 30.8 µM. In other words, the double-digit micromolar range.
Turning to `C[C@@H]1[C@@H]2C(=O)C[C@H]3[C@]4(C)CCC[C@](C)(CO)[C@H]4C[C@@H](O)[C@@]3([C@@H]1O)[C@@H]2O`, the Activity result is “Not toxic”.
Take `C=C1C(=O)[C@@]23[C@H](O)C[C@H]4[C@@](C)(CCC[C@]4(C)C(=O)O)[C@@H]2C[C@H](O)[C@@H]1[C@H]3O`: the Activity result is “Not toxic”.
As for `C=C1[C@H]2[C@@H](O)[C@@]3([C@H](O)C[C@H]4[C@@](C)(CCC[C@]4(C)C=O)[C@@H]3C[C@@H]2O)[C@@H]1OC(C)=O`, the Activity entry is “Not toxic”.
As for `C=C1C(=O)[C@@]23[C@H](O)C[C@H]4[C@@](C)(CCC[C@]4(C)C(=O)O)[C@@H]2CC[C@@H]1[C@H]3O`, the Activity entry is “Not toxic”.
`C=C1C(=O)[C@@]23[C@H](O)C[C@@H]4[C@@](C)(CO)CCC[C@@]4(C)[C@@H]2C[C@H](O)[C@@H]1[C@H]3O` [RABDOKUNMIN C] returned a concentration for half-maximal inhibition (IC50) of 42.1 µM.
Regarding `C[C@H]1C(=O)[C@@]23[C@H](O)C[C@@H]4[C@@](C)(CO[C@@H]5O[C@H](CO)[C@@H](O)[C@H](O)[C@H]5O)CCC[C@@]4(C)[C@@H]2C[C@H](O)[C@@H]1[C@H]3O`, the Activity entry was “Not toxic”.
Same read-out and setting: in the case of `C[C@H]1C(=O)[C@@]23[C@H](O)C[C@H]4[C@@](C)(CCC[C@]4(C)C(=O)O)[C@@H]2C[C@H](O)[C@@H]1[C@H]3O` it was “Not toxic”; in that of `C=C1[C@@H](OC(C)=O)[C@@]23[C@H](O)C[C@@H]4[C@@](C)(CO)CCC[C@@]4(C)[C@@H]2CC[C@@H]1[C@H]3O`, “Not toxic”.
Turning to `C=C1C(=O)[C@@]23[C@H](O)C[C@@H]4[C@@](C)(COC(C)=O)CCC[C@@]4(C)[C@@H]2C[C@H](O)[C@@H]1[C@H]3O` [ALBOPILOSIN A], the concentration for half-maximal inhibition (IC50) came to 24.9 µM.
The molecule `C=C1C(=O)[C@@]23[C@H](O)C[C@H]4[C@@](C)(CCC[C@]4(C)C=O)[C@@H]2CC[C@@H]1[C@H]3O` [ALBOPILOSIN H] showed an IC50 of 13.3 µM.
Consider `C=C1C(=O)[C@@]23[C@H](O)C[C@@H]4[C@@](C)(CO)CCC[C@@]4(C)[C@@H]2CC[C@@H]1[C@H]3O` [EXCISANIN C], for which the concentration for half-maximal inhibition (IC50) was 13.2 µM.
As for `C=C1[C@H]2[C@@H](O)[C@@]3([C@H](O)C[C@@H]4[C@@](C)(CO)CCC[C@@]4(C)[C@@H]3C[C@@H]2O)[C@@H]1OC(C)=O`, the Activity entry is “Not toxic”.
Still for that read-out and setting: under `C=C1C[C@@]23[C@H](O)C[C@@H]4[C@@](C)(CO)CCC[C@@]4(C)[C@@H]2C[C@H](O)[C@@H]1[C@H]3O` stands “Not toxic”.

One may read the IC50 as the point on the concentration scale where inhibition reaches its midpoint. Higher therefore signals lower potency.
